# Values of other authors, collected in article PMC2667333 (Molecular cell, 2009).
# System: calcineurin (CN)
# Conditions: ref Swanson et al., 1992; Yin and Ochs, 2003
compound,measurement,value
C=CC[C@@H]1/C=C(\C)C[C@H](C)C[C@H](OC)[C@H]2O[C@@](O)(C(=O)C(=O)N3CCCC[C@H]3C(=O)O[C@H](/C(C)=C/[C@@H]3CC[C@@H](O)[C@H](OC)C3)[C@H](C)[C@@H](O)CC1=O)[C@H](C)C[C@@H]2OC [FK506],effect on CN-mediated pNPP dephosphorylation,increase CN-mediated pNPP dephosphorylation
cyclosporin A [CsA],effect on CN-mediated pNPP dephosphorylation,increase CN-mediated pNPP dephosphorylation
